Reference: paper PMC9964390, “Design, Synthesis and Phenotypic Profiling of Simplified Gedatolisib Analogues” (Pharmaceuticals, 2023)
Values after ≈ are worked out from the molar mass of the structure shown. Read-outs that look alike come from different tables or passages of the source.

Legend:
[1] = pH-dependent aqueous solubility (UV spectrophotometry); format: physicochemical; details: aqueous buffer, thermodynamic from solid, 37 °C
Description: A stock solution of the target compound was prepared by dissolving 1 mg in methanol, and the wavelength of greatest absorption of each compound was obtained by scanning between wavelengths from 200 nm to 500 nm. Six dilutions were prepared from the stock solution and the absorbance reading in the UV spectrophotometer (SpectraMax M5, Molecular Devices, USA). The calibration curve with linear regression was created with the values obtained, and the solubility test was measured by correlating the concentration with the absorbance obtained by ultraviolet. Each compound was added in excess at phosphate buffer solution pH 5.8 and 7.4 to obtain a supersaturated solution that was kept under stirring for 4 h at 37 °C and then was filtered through a 0.45 µm filter for reading at the corresponding wavelengths. The solubility was determined through the equation of the straight line obtained by the linear regression of the calibration curve of the compounds [24, 25].

[2] = system: K562; assay: MTT cell viability assay; format: cell-based; details: Homo sapiens, K562, 72 h MTT; for CC50: 95% confidence interval in brackets; for Emax: read-out: Emax (maximum effect at maximum concentration used)
Description: (§1) For the evaluation of cellular cytotoxicity in cancer cell lines, the compounds were tested at concentrations ranging from 0.00003 μM to 150 μM. Immortalized cancer cells were selected: PC-3 (PTEN-mutated prostate adenocarcinoma), MCF-7 (PI3KCA-mutated breast carcinoma), K562 (P53-mutated chronic myeloid leukemia), CCRF-CEM (acute lymphoblastic leukemia with mutation in PTEN) and MOLT-4 (acute lymphoblastic leukemia with mutation in PI3KR1/PTEN). Peripheral blood mononuclear cells (PBMCs) were used to determine the cytotoxic selectivity index (SI). All immortalized cells were cultured in RPMI 1640 medium with 10% (v/v) FBS, streptomycin + penicillin, at 37 °C in a humidified incubator containing 5% CO2.
(§2) Cell viability was assessed by the MTT assay. The lines selected for this study were plated according to their respective densities, which ranged from 3 × 10^4 to 4 × 10^4 cells per well. Subsequently, they were treated with test compounds at different concentrations (0.00003 μM to 150 μM), gedatolisib and GSK-1059615.
(§3) After incubation, the plates are centrifuged at 440× g for 10 min. Then, 110 μL of the supernatant was withdrawn and each well received 10μL of the MTT solution. The plate was again incubated in an oven at 37 °C and 5% CO2 for 3 to 4 h. At the end of the incubation time, 100 μL of SDS-HCL detergent was added to solubilize the formazan crystals. The plate was shaken on an automatic overnight shaker and then read at a wavelength of 595 nm on the Molecular Devices Spectramax M5 plate reader.

[3] = system: MCF7; assay: MTT cell viability assay; format: cell-based; details: Homo sapiens, MCF7, 72 h MTT; for CC50: 95% confidence interval in brackets; for Emax: read-out: Emax (maximum effect at maximum concentration used)
Description: as §1, §2, §3

[4] = system: PC-3; assay: MTT cell viability assay; format: cell-based; details: Homo sapiens, PC-3, 72 h MTT; for CC50: 95% confidence interval in brackets; for Emax: read-out: Emax (maximum effect at maximum concentration used)
Description: as §1, §2, §3

[5] = system: CCRF-CEM; assay: MTT cell viability assay; format: cell-based, human; details: Homo sapiens, 72 h MTT; for CC50: 95% confidence interval in brackets; for Emax: read-out: Emax (maximum effect at maximum concentration used)
Description: as §1, §2, §3

[6] = system: MOLT-4; assay: MTT cell viability assay; format: cell-based, human; details: Homo sapiens, MOLT-4, 72 h MTT; for CC50: 95% confidence interval in brackets; for Emax: read-out: Emax (maximum effect at maximum concentration used)
Description: as §1, §2, §3

[7] = system: PC-3, MCF7, K562, CCRF-CEM and MOLT-4; assay: MTT single-concentration cytotoxicity screening; format: cell-based, human; details: for cytotoxic effect on leukemia cell lines at single concentration: single concentration 30 μM, reduction in cell viability ≥ 50% selected for CC50; for solubility in the culture medium: during screening at 30 μM; for cytotoxic activity at screening concentration: single concentration 1 μM
Description: In a first approach, the assay was validated with two standard drugs: gedatolisib and GSK-1059615.
After understanding the response profile of the selected cell lines to the treatment with gedatolisib and GSK-1059615, we investigated the cytotoxic activity of compounds 5a-f at a single concentration (30 μM). […] During the experiments, compounds 5a (LASSBio-2250), 5b (LASSBio-2251) and 9 (CAS-942789959) were insoluble and precipitated on the culture medium. Therefore, they were evaluated also at the screening concentration of 1 μM.
as §2, §3

[8] = system: CCRF-CEM cell line; assay: Muse Cell Cycle Kit; format: cell-based, human; details: 48 h
Description: The Guava Muse Luminex® Cell Cycle Kit (catalog n^o MCH100106, Luminex) contains the DNA marker propidium iodide (PI) and RNAse A to avoid nonspecific labelling.
After 48 h of incubation in an incubator at 37 °C with 5% CO2, 1 mL of the MOLT-4 cell solution and 500 µL of the CCRF-CEM cell solution, contained in the wells, were transferred to Eppendorf tubes and centrifuged at 300× g for 5 min. The volumes used ensured that the cell density remained within the recommended range (1 × 10^6 to 4 × 10^6 cells/mL) at the end of the 48 h incubation period.
The supernatant was discarded, and the pellet formed was resuspended in 1 mL of saline PBS, homogenised, and centrifuged at 300× g for 5 min. The formed pellet was resuspended in residual PBS by homogenization. To fix cellular events, 1 mL of ice-cold 70% alcohol was added dropwise into the tubes and vortexed at medium speed. The samples were incubated, before staining, for at least 3 h at −20 °C.
At the end of the incubation time at −20 °C, the samples were centrifuged at 300× g for 5 min, and then the supernatant was discarded and resuspended in 250 µL of PBS. The samples were again centrifuged at 300× g for 5 min and the supernatant discarded, which constituted the washing step. The pellet formed was resuspended in 200 µL of the Guava Muse Luminex® Cell Cycle, and the tubes were incubated for 30 min at room temperature, away from light.
After incubation, the samples were read in Guava Muse Luminex®, and the data with the histograms generated, which contain information on the percentage of the different phases of the cell cycle, were analysed in the statistical program Prism6. This methodology was performed in duplicate of three independent experiments.

[9] = phosphate buffer pH 5.8 (duodenum), read-out: Solubility pH 5.8
[10] = phosphate buffer pH 7.4 (plasma), read-out: Solubility pH 7.4

SMILES | solubility at 4 h [1, 9] [µM] | solubility at 4 h [1, 10] [µM] | melting point [°C] | CC50 [2] [µM] | Emax [2] [%] | CC50 [3] [µM] | Emax [3] [%] | CC50 [4] [µM] | Emax [4] [%] | CC50 [5] [µM] | Emax [5] [%] | CC50 [6] [µM] | Emax [6] [%] | solubility in the culture medium [7] | cytotoxic activity at screening concentration [7] | also measured
OCCN1CCN(c2nc(N3CCOCC3)nc(N3CCN(c4ccccc4)CC3)n2)CC1 [5e, 2-(4-(4-Morpholino-6-(4-phenylpiperazin-1-yl)-1,3,5-triazin-2-yl)piperazin-1-yl)ethan-1-ol] | 31.2 (≈ 14.2 µg/mL) | 49.1 (≈ 22.3 µg/mL) | 92 |  |  |  |  |  |  |  |  |  |  |  |  | 
O=C1NC(=O)/C(=C/c2ccc3nccc(-c4ccncc4)c3c2)S1 [GSK-1059615, reference compound] |  |  |  | 1.82 | 84 | 0.55 | 80 | 6.78 | 67 | 0.43 | 93 | 0.63 | 92 |  |  | 
CN1CCN(c2nc(N3CCOCC3)nc(N3CCN(c4ccccc4)CC3)n2)CC1 [5d, 4-(4-(4-Methylpiperazin-1-yl)-6-(4-phenylpiperazin-1-yl)-1,3,5-triazin-2-yl)morpholine] | 30.7 (≈ 13 µg/mL) | 50.9 (≈ 21.6 µg/mL) | 135 | 50.2 | 80 | > 100 | 77 | 91.3 | 72 | 66.5 | 95 | 64.1 | 91 |  |  | cytotoxic effect on leukemia cell lines at single concentration [7]: cytotoxic effect
c1ccc(N2CCN(c3nc(N4CCOCC4)nc(N4CCSCC4)n3)CC2)cc1 [5a, 4-(4-(4-Phenylpiperazin-1-yl)-6-thiomorpholino-1,3,5-triazin-2-yl)morpholine] | 0.52 (≈ 0.222 µg/mL) | 2.88 (≈ 1.23 µg/mL) | 170 |  |  |  |  |  |  |  |  |  |  | insoluble | inactive | 
CC[C@]1(O)C[C@H]2CN(CCc3c([nH]c4ccccc34)[C@@](C(=O)OC)(c3cc4c(cc3OC)N(C=O)[C@H]3[C@@](O)(C(=O)OC)[C@H](OC(C)=O)[C@]5(CC)C=CCN6CC[C@]43[C@@H]65)C2)C1 [Vincristine, vincristine] |  |  |  |  |  |  |  |  |  |  |  |  |  |  |  | action on the cell cycle ([8]; 5 µM): increased arrest in the G2/M phase
c1ccc(N2CCN(c3nc(N4CCOCC4)nc(N4CCOCC4)n3)CC2)cc1 [compound 9, reference compound] | 3.92 (≈ 1.61 µg/mL) | 6.03 (≈ 2.48 µg/mL) |  |  |  |  |  |  |  |  |  |  |  | insoluble | inactive | 
c1ccc(N2CCN(c3nc(N4CCCCC4)nc(N4CCOCC4)n3)CC2)cc1 [5b, 4-(4-(4-Phenylpiperazin-1-yl)-6-(piperidin-1-yl)-1,3,5-triazin-2-yl)morpholine] | 2.84 (≈ 1.16 µg/mL) | 0.51 (≈ 0.209 µg/mL) |  |  |  |  |  |  |  |  |  |  |  | insoluble | inactive | 
c1ccc(N2CCN(c3nc(N4CCNCC4)nc(N4CCOCC4)n3)CC2)cc1 [5c] | 43.4 (≈ 17.8 µg/mL) | 59.1 (≈ 24.3 µg/mL) |  | 25.6 | 85 | > 100 | 57 | 92.3 | 58 | 37.3 | 94 | 31.8 | 93 |  |  | cytotoxic effect on leukemia cell lines at single concentration [7]: cytotoxic effect
COc1cccc2c1C(=O)c1c(O)c3c(c(O)c1C2=O)C[C@@](O)(C(=O)CO)C[C@@H]3O[C@H]1C[C@H](N)[C@H](O)[C@H](C)O1 [doxorubicin] |  |  |  |  |  |  |  |  |  |  |  |  |  |  |  | action on the cell cycle ([8]; 0.5 µM): nonspecific action on the cell cycle
